The source of these data is EPA's ToxValDB 9.5.

“And” between values parts separate entries of the source, which are not always exact repeats. Equal entries are not always repeated.

Data set [1] concerns Rattus norvegicus. To be noted: subchronic, oral; for NOAEL: Sprague-Dawley.
The test system of data set [2] is Rattus norvegicus. To be noted: for LEL: uterotrophic, Active; for LOEL / NOEL: Hershberger, gavage.
Data set [3] concerns Rattus norvegicus. To be noted: subchronic, oral, diet, Fischer 344, Body Weight Changes: decrease + Food Consumption + Hematology: Hgb decrease, RBC decrease, MetHgb increase + Blood Chemistry: TP decrease, ….
The subject of data set [4] is Canidae. To be noted: chronic, oral, diet, Dog Other.
Data set [5] concerns Rattus norvegicus. To be noted: chronic; duration: 104 weeks; oral; diet; Liver: Increased weight.
A further data set relates to Mus musculus. To be noted: uterotrophic, Active.
Data set [6] relates to Canidae. To be noted: subchronic; duration: 90 days; oral; diet; M/F; Beagle; Decreased bodyweight & feed consumption.
The subject of data set [7] is Canidae. To be noted: chronic, oral, M/F, Dog Other.
For data set [8], the system named is Rattus norvegicus. To be noted: oral; for LD50: acute.
A further data set relates to Oryctolagus sp. To be noted: acute; dermal.
The mark [9] stands for this setting: duration: 3 days, injection, subcutaneous.
The mark [10] stands for this setting: duration: 7 days, oral, Sprague-Dawley, active + Antiandrogenic + anti-androgenic + reduced SV and caudal epididymal wt / PPS delayed.
Where [11] appears, read: duration: 10 days, oral, Wistar, active + Antiandrogenic + anti-androgenic + reduced SV and caudal epididymal wt / PPS delayed.
Where [12] appears, read: duration: 10 days, oral, Sprague-Dawley, active + Negative + Antiandrogenic + anti-androgenic + significant increase in liver wt at 100 / decrease in AST wt and serum Testosterone ….
[13] abbreviates: subchronic, duration: 3 months, diet, BOR/WISW (SPF Cpb).

In the data set on Rattus norvegicus [1] (duration: 13 weeks, diet, M, Fischer 344, Immune), `Cc1ccc([N+](=O)[O-])cc1` [4-Nitrotoluene] had an LOAEL of 42 mg/kg-day. In the data set on Rattus norvegicus [2] (duration: 1 days, injection, intraperitoneal), the LEL stood at 30 mg/kg-day. In addition, the figures for the NOEL with Rattus norvegicus [3] (F) and with Rattus norvegicus [3] (M/F) were under 44 mg/kg-day and under 60 mg/kg-day, respectively.
With `CC(COc1ccc(C(C)(C)C)cc1)OS(=O)OCCCl` (stereo not given) [Aramite], the NOAEL was found to be 10 mg/kg-day in the data set on Canidae [4] (duration: 52 weeks, Liver: Degeneration) and 7.8 mg/kg-day in the data set on Rattus norvegicus [5].
Regarding `C#C[C@]1(O)CC[C@H]2[C@@H]3CCc4cc(OC)ccc4[C@H]3CC[C@@]21C` [Mestranol], the LEL with Rattus norvegicus [2] (duration: 3 days, injection, intraperitoneal) stood at 0.001 mg/day; in the data set on Rattus norvegicus [2] (duration: 3 days, oral), 0.01 mg/kg-day; with Rattus norvegicus [2] (duration: 14 days, oral), 0.001 mg/day; with Mus musculus (setting [9]), 0.5 µg/0.1 mL. For the same compound, the “LEL (fractional dose of pill)” value in the data set with Mus musculus (duration: 3 days, oral) was determined as 0.001.
Consider `CC1(C)CCCCC1(C)C` [Tetramethylcyclohexane], for which the NOAEL with Rattus norvegicus [1] (duration: 90 days, diet, M/F, Whole Body Effects) is 3000 mg/kg-day.
The compound `CO/N=C1\C[C@]2(C[C@@H]3C[C@@H](C/C=C(\C)C[C@@H](C)/C=C/C=C4\CO[C@@H]5[C@H](O)C(C)=C[C@@H](C(=O)O3)[C@]45O)O2)O[C@H](/C(C)=C/C(C)C)[C@H]1C` [Moxidectin] displayed an NOEL in the data set on Canidae [6] of 0.3 mg/kg-day.
In turn, `CON(C)C(=O)Nc1ccc(Cl)c(Cl)c1` [Linuron] yielded an LEL in the data set on Canidae [7] (duration: 2 years, diet, abnormal blood pigment) of 0.625 mg/kg-day. For the same compound, the lowest-observed-adverse-effect level (LOAEL) in the data set on Canidae [4] (duration: 2 years, Blood: Hematological effects) was determined as 0.625 mg/kg-day. The LOEL in the data set on Rattus norvegicus [2] (setting [10]) was 40 mg/kg-day and 100 mg/kg-day; in the data set on Rattus norvegicus [2] (setting [11]) it was 40 mg/kg-day and 100 mg/kg-day. The NOEL with Rattus norvegicus [2] (setting [10]) is 20 mg/kg-day; in the data set on Rattus norvegicus [2] (duration: 10 days, oral, Sprague-Dawley, inactive + Negative + anti-androgenic + reduced SV and caudal epididymal wt / PPS delayed), 20 mg/kg-day; with Rattus norvegicus [2] (setting [11]), 20 mg/kg-day and 10 mg/kg-day; in the data set on Rattus norvegicus [2] (duration: 10 days, oral, Wistar, inactive + Negative + anti-androgenic + reduced SV and caudal epididymal wt / PPS delayed), 20 mg/kg-day; in the data set with Rattus norvegicus [2] (duration: 10 days, oral, wistar, active + Antiandrogenic + anti-androgenic + reduced SV and caudal epididymal wt / PPS delayed) it was 20 mg/kg-day and 30 mg/kg-day and 10 mg/kg-day.
Turning to `O=C(c1ccc(O)cc1O)c1ccc(O)cc1O` [2,2',4,4'-Tetrahydroxybenzophenone], the LEL was 100 mg/kg-day and 200 mg/kg-day and 230 mg/kg-day in the data set on Rattus norvegicus [2] (setting [9]); 100 mg/kg-day and 250 mg/kg-day with Rattus norvegicus [2] (duration: 5 days, oral); 185 mg/kg-day with Rattus norvegicus [2] (duration: 90 days, oral, diet); 300 mg/kg-day in the data set with Mus musculus (duration: 7 days, injection, subcutaneous); 1000 mg/kg-day in the data set on Mus musculus (duration: 7 days, oral).
For the compound `Cc1cc(N)ccc1N.O=S(=O)(O)O` [p-Toluenediamine sulfate], the NOAEL with Rattus norvegicus [1] (duration: 13 weeks, gavage, M) was determined as 2.5 mg/kg-day.
`CCCCN(CC)c1c([N+](=O)[O-])cc(C(F)(F)F)cc1[N+](=O)[O-]` [Benfluralin]: in the data set with Canidae [7] (reduced erythrocyte counts), the LOAEL turned out to be 125 mg/kg-day and the no-observed-adverse-effect level (NOAEL) stood at 25 mg/kg-day. Besides, the NOAEL in the data set on Canidae [4] (duration: 1 years, Erythrocytes: Decreased count) stood at 25 mg/kg-day. Further, in the data set on Rattus norvegicus [2] (setting [12]), the LOEL was 400 mg/kg-day and 750 mg/kg-day; the NOEL was 100 mg/kg-day and 250 mg/kg-day.
On to `CC(C)(C)CC(C)(C)c1ccc(O)cc1` [4-(1,1,3,3-Tetramethylbutyl)phenol], for which the LD50 was 2200 mg/kg with Rattus norvegicus [8], over 2000 mg/kg in the data set with Rattus norvegicus [8] (Sprague-Dawley) and over 2000 mg/kg in the data set on Oryctolagus sp.. Further, the NOAEL in the data set with Rattus norvegicus [8] (reproduction developmental, diet, Sprague-Dawley) was at least 2000 ppm; in the data set on Rattus norvegicus [8] (reproduction developmental, diet, Sprague-Dawley, generation: F0) it was 200 ppm; in the data set on Rattus norvegicus [8] (reproduction developmental, diet, Sprague-Dawley, generation: F1) it was 200 ppm; in the data set with Rattus norvegicus [8] (setting [13]), 2.88 mg/kg-day. Also, the lowest-observed-adverse-effect level (LOAEL) with Rattus norvegicus [8] (setting [13]) turned out to be 28.8 mg/kg-day. In addition, the LEL in the data set on Rattus norvegicus [2] (duration: 1 days, injection, subcutaneous) is 200 mg/kg-day and 600 mg/kg-day; in the data set with Rattus norvegicus [2] (duration: 2 days, injection, subcutaneous), 50 mg/kg-day; in the data set on Rattus norvegicus [2] (duration: 14 days, injection, subcutaneous), 25 mg/kg-day; in the data set on Mus musculus (duration: 9 days, injection, subcutaneous), 50 mg/kg-day.

Usually LOAEL stands for the lowest dose or exposure tested at which an adverse effect was seen. By NOAEL is commonly meant the highest tested level that showed no adverse finding. By LD50 is commonly meant the dose at which mortality reaches 50%.
